According to ChEMBL document CHEMBL3352237, “Synthesis and biological evaluation of novel peptide BF2 as an antibacterial agent against clinical isolates of vancomycin-resistant enterococci” (J Med Chem, 2014):

What was measured:
Enterococcus faecalis [1] = assay: Antibacterial activity against vancomycin-resistant Enterococcus faecalis clinical isolate 5642 after overnight incubation by two-fold serial dilution method; type: functional
Enterococcus faecalis [2] = assay: Antibacterial activity against vancomycin-resistant Enterococcus faecalis clinical isolate 22626 after overnight incubation by two-fold serial dilution method; type: functional
Enterococcus faecium [3] = assay: Bactericidal activity against vancomycin-resistant Enterococcus faecium clinical isolate 3864 after 24 hrs by two-fold serial dilution method; type: functional; conditions: isolate 3864, 24 h
Enterococcus faecalis [4] = assay: Bactericidal activity against vancomycin-resistant Enterococcus faecalis clinical isolate 5648 after 24 hrs by two-fold serial dilution method; type: functional; conditions: isolate 5648, 24 h
Rattus norvegicus = assay: Toxicity in Wistar albino rat infected with Enterococcus at MIC to 3 times MIC, iv; type: organism-based; conditions: in vivo
Enterococcus faecium [5] = assay: Bactericidal activity against vancomycin-resistant Enterococcus faecium clinical isolate 18906 after 24 hrs by two-fold serial dilution method; type: functional; conditions: isolate 18906, 24 h
Enterococcus faecium [6] = assay: Antibacterial activity against vancomycin-resistant Enterococcus faecium clinical isolate 10177 after overnight incubation by two-fold serial dilution method; type: functional
Enterococcus faecium [7] = assay: Bactericidal activity against vancomycin-resistant Enterococcus faecium clinical isolate 5396 after 24 hrs by two-fold serial dilution method; type: functional; conditions: isolate 5396, 24 h
Enterococcus faecium [8] = assay: Bactericidal activity against vancomycin-resistant Enterococcus faecium clinical isolate […] after 24 hrs by two-fold serial dilution method; type: functional; conditions: isolate 27/1691, 24 h
Enterococcus faecalis [9] = assay: Bactericidal activity against vancomycin-resistant Enterococcus faecalis clinical isolate 5814 after 24 hrs by two-fold serial dilution method; type: functional; conditions: isolate 5814, 24 h
Enterococcus faecalis [10] = assay: Antibacterial activity against vancomycin-resistant Enterococcus faecalis clinical isolate 5814 after overnight incubation by two-fold serial dilution method; type: functional
Enterococcus faecium [11] = assay: Bactericidal activity against vancomycin-resistant Enterococcus faecium clinical isolate 30/48 after 24 hrs by two-fold serial dilution method; type: functional; conditions: isolate 30/48, 24 h
Enterococcus faecium [12] = assay: Antibacterial activity against vancomycin-resistant Enterococcus faecium clinical isolate 29/203 after overnight incubation by two-fold serial dilution method; type: functional
Enterococcus faecalis [13] = assay: Bactericidal activity against vancomycin-resistant Enterococcus faecalis clinical isolate 6093 after 24 hrs by two-fold serial dilution method; type: functional; conditions: isolate 6093, 24 h
Enterococcus faecium [14] = assay: Antibacterial activity against vancomycin-resistant Enterococcus faecium clinical isolate 147969 after overnight incubation by two-fold serial dilution method; type: functional

In the case of H-RWRLLLLKKH-OH, the MIC (Enterococcus faecalis [1]) is reported as 12.5 µg/mL, the MIC (Enterococcus faecalis [2]) is reported as 12.5 µg/mL and the MBC (Enterococcus faecium [3]) is reported as 25 µg/mL. The MBC (Enterococcus faecalis [4]) was 25 µg/mL, the Activity (Rattus norvegicus) was “Non-toxic” and the MBC (Enterococcus faecium [5]) was 25 µg/mL. The MIC (Enterococcus faecium [6]) was 12.5 µg/mL, the MBC (Enterococcus faecium [7]) was 25 µg/mL and the MBC (Enterococcus faecium [8]) was 25 µg/mL. It also gave an MBC (Enterococcus faecalis [9]) of 25 µg/mL, an MIC (Enterococcus faecalis [10]) of 12.5 µg/mL and an MBC (Enterococcus faecium [11]) of 25 µg/mL. The MIC (Enterococcus faecium [12]) was 12.5 µg/mL, the MBC (Enterococcus faecalis [13]) was 25 µg/mL and the MIC (Enterococcus faecium [14]) was 12.5 µg/mL.
